Values joined by “and” are separate entries in the source; they are usually repeats but may differ in a detail not shown here. Identical values can stand only once. Toxic doses and inconclusive results are not listed. Rule as the data show it: active = T/C of 150% or more; inactive = T/C below 125%. Peptide text beside a SMILES is read from it. * marks the point of attachment. Cbz = O=C(OCc1ccccc1)*; OBn = c1ccc(CO*)cc1; Bn = c1ccc(C*)cc1
System: L1210 leukemia ip in BDF1 mice, survival T/C
Experiment: NCI In Vivo Anticancer Drug Screen. Data for tumor model L1210 Leukemia (intraperitoneal) in B6D2F1 (BDF1) mice
Conditions: endpoint: mean survival time, higher = longer survival
Procedure, shortened: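 Tumor cells were implanted, animals were treated, and survival was followed. The result divides the treated measurement by the vehicle-control measurement.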

[1] = dose: 100.0 mg/kg/injection, schedule: Q01DX009 (ip), vehicle: Klucel (hydroxypropylcellulose) (HPC)
[2] = dose: 200.0 mg/kg/injection, schedule: Q01DX009 (ip), vehicle: Klucel (hydroxypropylcellulose) (HPC)
[3] = dose: 400.0 mg/kg/injection, schedule: Q01DX009 (ip), vehicle: Klucel (hydroxypropylcellulose) (HPC)
[4] = dose: 100.0 mg/kg/injection, schedule: Q04DX003 (ip), vehicle: Klucel (hydroxypropylcellulose) (HPC)
[5] = dose: 200.0 mg/kg/injection, schedule: Q04DX003 (ip), vehicle: Klucel (hydroxypropylcellulose) (HPC)
[6] = dose: 400.0 mg/kg/injection, schedule: Q04DX003 (ip), vehicle: Klucel (hydroxypropylcellulose) (HPC)
[7] = dose: 100.0 mg/kg/injection, schedule: Q04DX003 (ip), vehicle: saline with Tween-80
[8] = dose: 200.0 mg/kg/injection, schedule: Q04DX003 (ip), vehicle: saline with Tween-80
[9] = dose: 400.0 mg/kg/injection, schedule: Q04DX003 (ip), vehicle: saline with Tween-80
[10] = dose: 10.0 mg/kg/injection, schedule: Q01DX001 (ip), vehicle: saline
[11] = dose: 100.0 mg/kg/injection, schedule: Q01DX009 (ip), vehicle: saline with Tween-80
[12] = dose: 200.0 mg/kg/injection, schedule: Q01DX009 (ip), vehicle: saline with Tween-80
[13] = dose: 6.25 mg/kg/injection, schedule: Q01DX009 (ip), vehicle: saline with Tween-80
[14] = dose: 12.5 mg/kg/injection, schedule: Q01DX009 (ip), vehicle: saline with Tween-80
[15] = dose: 50.0 mg/kg/injection, schedule: Q01DX009 (ip), vehicle: saline
[16] = dose: 100.0 mg/kg/injection, schedule: Q01DX009 (ip), vehicle: saline
[17] = dose: 200.0 mg/kg/injection, schedule: Q01DX009 (ip), vehicle: saline

Measured: T/C

CC(=O)c1c(C)c(Cl)c(C)c(Cl)c1O
inactive: [1] 101 % of control | dose: 100.0 mg/kg/injection, schedule: Q04DX002 (ip), vehicle: Klucel (hydroxypropylcellulose) (HPC) 103 % of control and 107 % of control | [2] 104 % of control | dose: 200.0 mg/kg/injection, schedule: Q04DX002 (ip), vehicle: Klucel (hydroxypropylcellulose) (HPC) 103 % of control and 114 % of control | [3] 90 % of control | dose: 400.0 mg/kg/injection, schedule: Q04DX002 (ip), vehicle: Klucel (hydroxypropylcellulose) (HPC) 95 % of control and 107 % of control

CC(C)C(NC(=O)C(CSCc1ccccc1)NC(=O)OCc1ccccc1)C(=O)OCc1ccccc1 (centres undefined) (Cbz-Cys(Bn)-Val-OBn; configuration not given here)
inactive: [4] 98 % of control | [5] 93 % of control | [6] 96 % of control

COc1ccc2c(cc1=O)CC=CC1CC(OC)C(OC)C(OC)C21 (centres undefined)
inactive: [7] 92 % of control | [8] 93 % of control | [9] 101 % of control

CCCCCCCCCCCCCCC[n+]1cccc(C#N)c1
inactive: dose: 5.0 mg/kg/injection, schedule: Q01DX009 (ip), vehicle: saline 104 % of control | [10] 87 % of control | dose: 10.0 mg/kg/injection, schedule: Q01DX009 (ip), vehicle: saline 96 % of control | dose: 10.0 mg/kg/injection, schedule: Q04DX003 (ip), vehicle: saline 90 % of control | dose: 20.0 mg/kg/injection, schedule: Q01DX001 (ip), vehicle: saline 95 % of control and 86 % of control | dose: 20.0 mg/kg/injection, schedule: Q01DX009 (ip), vehicle: saline 107 % of control | dose: 20.0 mg/kg/injection, schedule: Q04DX003 (ip), vehicle: saline 95 % of control | dose: 40.0 mg/kg/injection, schedule: Q01DX001 (ip), vehicle: saline 101 % of control and 90 % of control | dose: 40.0 mg/kg/injection, schedule: Q04DX003 (ip), vehicle: saline 94 % of control

CN(C)c1ccc(/C=C/c2ccc([N+](=O)[O-])cc2[N+](=O)[O-])c(Cl)c1
inactive: dose: 50.0 mg/kg/injection, schedule: Q01DX009 (ip), vehicle: saline with Tween-80 88 % of control | [11] 100 % of control | [12] 91 % of control

CCc1ccc2c(c1)N(CCCN(CCCl)CCCl)c1ccccc1S2
inactive: dose: 1.56 mg/kg/injection, schedule: Q01DX009 (ip), vehicle: saline with Tween-80 107 % of control | dose: 3.12 mg/kg/injection, schedule: Q01DX001 (ip), vehicle: saline with Tween-80 97 % of control | dose: 3.12 mg/kg/injection, schedule: Q01DX009 (ip), vehicle: saline with Tween-80 102 % of control | dose: 6.25 mg/kg/injection, schedule: Q01DX001 (ip), vehicle: saline with Tween-80 97 % of control | [13] 100 % of control | dose: 6.25 mg/kg/injection, schedule: Q04DX003 (ip), vehicle: saline with Tween-80 110 % of control | dose: 12.5 mg/kg/injection, schedule: Q01DX001 (ip), vehicle: saline with Tween-80 111 % of control | [14] 102 % of control | dose: 12.5 mg/kg/injection, schedule: Q04DX003 (ip), vehicle: saline with Tween-80 111 % of control | dose: 25.0 mg/kg/injection, schedule: Q04DX003 (ip), vehicle: saline with Tween-80 111 % of control | dose: 50.0 mg/kg/injection, schedule: Q04DX003 (ip), vehicle: saline with Tween-80 111 % of control

NC(N)=N/N=C/c1ccc(Cl)c([N+](=O)[O-])c1
inactive: dose: 6.0 mg/kg/injection, schedule: Q01DX Z (oral), vehicle: methylcellulose (MC) 93 % of control | dose: 15.0 mg/kg/injection, schedule: Q01DX Z (oral), vehicle: methylcellulose (MC) 115 % of control | dose: 30.0 mg/kg/injection, schedule: Q01DX Z (oral), vehicle: methylcellulose (MC) 109 % of control | dose: 120.0 mg/kg/injection, schedule: Q01DX Z (oral), vehicle: methylcellulose (MC) 96 % of control

CCS(=O)CCNC(=O)NS(=O)(=O)c1ccc(C)cc1 (centres undefined)
inactive: [7] 100 % of control | [8] 101 % of control | [9] 97 % of control

CSc1ncnc2c1nc[n]2[Sn]([c]1ccccc1)([c]1ccccc1)[c]1ccccc1.CSc1ncnc2nc[nH]c12
inactive: dose: 5.0 mg/kg/injection, schedule: Q01DX001 (ip), vehicle: other 108 % of control | dose: 10.0 mg/kg/injection, schedule: Q01DX001 (ip), vehicle: other 104 % of control | dose: 20.0 mg/kg/injection, schedule: Q01DX001 (ip), vehicle: other 111 % of control

BrC1CC/C=C\CCC1Br (centres undefined)
inactive: [1] 93 % of control | [4] 105 % of control | [2] 87 % of control | [5] 91 % of control | [3] 93 % of control | [6] 109 % of control

CC(=O)OC1CCC2(C)C(CCC3C2CCC2(C)C3CCC2C(C)(C)O)C1 (centres undefined)
inactive: dose: 100.0 mg/kg/injection, schedule: Q04DX002 (ip), vehicle: DMSO 99 % of control | dose: 200.0 mg/kg/injection, schedule: Q04DX002 (ip), vehicle: DMSO 92 % of control | dose: 400.0 mg/kg/injection, schedule: Q04DX002 (ip), vehicle: DMSO 92 % of control

CCCCO.[Sn]
inactive: [15] 99 % of control and 109 % of control | [16] 96 % of control and 109 % of control | [17] 99 % of control and 106 % of control

Fc1ccc(CC(F)(F)F)cc1
inactive: dose: 100.0 mg/kg/injection, schedule: Q01DX001 (ip), vehicle: saline with Tween-80 97 % of control | dose: 200.0 mg/kg/injection, schedule: Q01DX001 (ip), vehicle: saline with Tween-80 105 % of control | dose: 400.0 mg/kg/injection, schedule: Q01DX001 (ip), vehicle: saline with Tween-80 98 % of control

CCN(C1CCCCC1)C1CCCCC1
inactive: dose: 25.0 mg/kg/injection, schedule: Q01DX009 (ip), vehicle: saline 100 % of control | [15] 98 % of control | [16] 107 % of control

CCC1(CC)COC(C)(C(=O)O)OC1
inactive: [11] 96 % of control and 95 % of control | [12] 89 % of control and 101 % of control | dose: 400.0 mg/kg/injection, schedule: Q01DX009 (ip), vehicle: saline with Tween-80 90 % of control

OC1CCCSC1 (centres undefined)
inactive: [16] 102 % of control | dose: 100.0 mg/kg/injection, schedule: Q04DX003 (ip), vehicle: saline 96 % of control | [17] 98 % of control | dose: 200.0 mg/kg/injection, schedule: Q04DX003 (ip), vehicle: saline 100 % of control | dose: 400.0 mg/kg/injection, schedule: Q01DX009 (ip), vehicle: saline 98 % of control | dose: 400.0 mg/kg/injection, schedule: Q04DX003 (ip), vehicle: saline 89 % of control

CNc1cc(N2CCCC2)ccn1
inactive: dose: 5.0 mg/kg/injection, schedule: Q01DX001 (ip), vehicle: saline 104 % of control | [10] 110 % of control

CCC(=O)Nc1cccc(OC(=O)NC(C)(C)C)c1
inactive: [7] 90 % of control | [8] 90 % of control | [9] 89 % of control

Cc1ccc(OCCOc2ccc(NC(=O)CC(=O)c3cccc([N+](=O)[O-])c3)cc2)cc1
inactive: [1] 100 % of control | [4] 95 % of control | [2] 103 % of control | [5] 98 % of control | [3] 97 % of control | [6] 97 % of control

COc1ccc(N=C=S)cc1N=C=S
inactive: [13] 101 % of control | [14] 103 % of control | dose: 25.0 mg/kg/injection, schedule: Q01DX009 (ip), vehicle: saline with Tween-80 104 % of control

CCCCCOc1cc([N+](=O)[O-])c(OCCCCC)cc1N1CCN(C(C)=O)CC1
inactive: dose: 100.0 mg/kg/injection, schedule: Q04DX003 (sc), vehicle: olive oil, sesame oil, peanut oil 100 % of control | dose: 200.0 mg/kg/injection, schedule: Q04DX003 (sc), vehicle: olive oil, sesame oil, peanut oil 96 % of control | dose: 400.0 mg/kg/injection, schedule: Q04DX003 (sc), vehicle: olive oil, sesame oil, peanut oil 105 % of control

Reference: PubChem BioAssay AID248 (DTP/NCI, 2004)
